The text below walks through data of patent US20240076347A1, “METHODS FOR PREVENTING FUNGAL INFECTIONS” (Cidara Therapeutics, Inc., priority 2016, published 2024).

Numbered stars: 1 amine (or outer) side, 2 acyl side, 3 side chain; on linkers, the order of the positions; unused ones are H or OH. Bridge positions count the residues as written; N and C are the ends. Square brackets hold non-standard residues; d marks the D form. Peptide text beside a SMILES is read from it. * marks the point of attachment. ξ: configuration not given here. Orn(4R-OH,5R-OCH2CH2NMe3+) = C[N+](C)(C)CCO[C@@H](N[*:3])[C@H](O)C[C@H](N[*:1])C(=O)[*:2]; pTerphenylCO(4''-OnC5H11) = CCCCCOc1ccc(-c2ccc(-c3ccc(C(=O)*)cc3)cc2)cc1; hTyr(3S-OH,4S-OH) = N[C@H](C(=O)O)[C@H](O)[C@@H](O)c1ccc(O)cc1; X1 = C[C@H]1CN([*:1])C(C(=O)[*:2])C1O; Hyp = O=C(O)[C@@H]1C[C@@H](O)CN1; ξT = CC(O)C(N)C(=O)O

Data set [1] is classed as in vivo, Wistar rats. The protocol:
Endpoints. The rats were monitored at a frequency appropriate for their clinical condition. Rat weights were recorded at least once daily to ensure animals remained within ethical limits.
Reduction in weight and general loss of condition due to estradiol treatment are also typical in this rat model. Colonization with C. albicans was determined by quantitative culture of daily vaginal lavage samples. Rats were euthanized 9 days post infection and C. albicans determined by quantitative culture of vaginal tissue (including uterine horns).

The subject of data set [2] is A. fumigatus clinical isolates. Briefly: MEC, CLSI broth microdilution (M38-A2), SENTRY clinical isolates. Type of data set: cell-based, Aspergillus fumigatus. As to conditions: 153 isolates, 2014 and 2015 SENTRY. The source says:
The in vitro activity of CD101 was previously evaluated as part of the SENTRY international surveillance program using CLSI broth microdilution methodology (M38-A2, M27-A3; Pfaller, et al 2017). […] These susceptibility data were then compared graphically to CD101 plasma concentrations from studies in healthy adults, adjusted for plasma protein binding. Nonclinical efficacy in a murine model of Pneumocystis pneumonia were also considered to evaluate CD101 doses for clinical investigation of antifungal prophylaxis.
The in vitro activity of CD101 was evaluated against 153 A. fumigatus clinical isolates collected as part of the 2014 and 2015 JMI international SENTRY surveillance program. Susceptibility was determined by measuring the minimal effective concentration (MEC) values in accordance with CLSI broth microdilution guidelines (M38-A2). In vivo tissue distribution of CD101 in SD rats (N=3/time up to 5 d) after a 5 mg/kg IV CD101 dose. Plasma/tissue concentrations were measured by LC-MS/MS.
For orientation: In broth dilution the organism is exposed to a series of concentrations in liquid medium.

A further data set has as its system C. albicans biofilms. Briefly: Time lapse microscopy of biofilm formation. Format: cell-based, Candida albicans. As to conditions: up to 16 h. The source says:
The effective CD101 concentration obtained from the above experiments was used to monitor its effect on biofilm formation in real time using TLM, which involves capturing real-time images of a single frame at specific time intervals, allowing temporal monitoring of the interactions occurring between the drug and Candida biofilms. Captured images were combined in a time sequence, resulting in an animation depicting the sequence of events that occurred with the passage of time. Briefly, the discs with C. albicans (adhered for 90 min as above) were placed in a 35-mm-diameter glass-bottom Petri dish (MiTek Corp., Ashland, MA). […] Phase contrast images for this interaction were captured immediately from 0 h and followed up to 16-17 h on a Leica DMI 6000 B inverted microscope connected to a Retiga EXi Aqua camera (Q-imaging Vancouver British Columbia). To determine the structural changes in the maturing biofilm, both acquisition and analysis of a series of horizontal (xy) optical sections of the biofilm was done using Metamorph Imaging software (Molecular Devices, Downington, PA). Disc incubated with media alone was used as control.

The next data set deals with Candida auris. Briefly: Murine model of disseminated candidiasis (immunosuppressed CD-1 mice), treatment. Format: in vivo. As to conditions: 20 mg/kg IP. On the procedure: Female 6-8 week old CD-1 mice were immunosuppressed with cyclophosphamide (200 mg/kg) 3 days prior to infection and 150 mg/kg 1 day post-infection. On the day of infection, mice were inoculated with 3×10^7 C. auris blastospores via the lateral tail vein. Mice were randomized into 5 groups (n=5 for colony forming units (CFU) and n=10 for survival): CD101 20 mg/kg administered by intraperitoneal (IP) injection, fluconazole 20 mg/kg administered per os (PO), amphotericin B 0.3 mg/kg IP, and a vehicle control. Treatments were administered 2 hours post-infection (Day 1) and again on Day 4 of the study for a total of 2 doses. Mice were monitored daily and a survival curve was generated. CFU groups were sacrificed on Day 8 of the study. One kidney was removed from each mouse, homogenized, plated on potato dextrose agar (PDA), and incubated at 35° C. for 2 days to determine CFU. The remaining survival mice were monitored until the end of the study (Day 14).

A short description of data set [3]: Previous toxicology studies by the IV route. Type of data set: in vivo, cynomolgus monkeys. As to conditions: up to at least 30 mg/kg.
The next data set deals with C. albicans. Briefly: In vitro susceptibility testing (CLSI M27-A3). As to conditions: Candida albicans, 24 h. Type of data set: cell-based. The protocol:
Strains. Ten clinical Candida strains were used for the in vivo treatment studies, including four C. albicans, three C. glabrata, and three C. parapsilosis strains (Table 18). This group was selected to encompass phenotypic variability in susceptibility to triazoles and echinocandins and based on similar fitness in the animal model as defined by the amount of growth in control animals over 24 h. The organisms were maintained, grown, and quantified on Sabouraud's dextrose agar (SDA) plates.
In vitro susceptibility testing. All isolates were tested in accordance with the standards in CLSI document M27-A3. The MICs were determined visually after 24 h of incubation as the lowest concentration of drug that causes a significant diminution (≥50%) of growth compared to controls. MICs were determined on three separate occasions in duplicate.

Take `CCCCCOc1ccc(-c2ccc(-c3ccc(C(=O)N[C@H]4C[C@@H](O)[C@@H](OCC[N+](C)(C)C)NC(=O)C5C(O)[C@@H](C)CN5C(=O)[C@H]([C@@H](C)O)NC(=O)[C@H]([C@H](O)[C@@H](O)c5ccc(O)cc5)NC(=O)[C@@H]5C[C@@H](O)CN5C(=O)C(C(C)O)NC4=O)cc3)cc2)cc1` (stereo partly drawn) [CD101] ({pTerphenylCO(4''-OnC5H11)}-[Orn(4R-OH,5R-OCH2CH2NMe3+)][ξT][Hyp][hTyr(3S-OH,4S-OH)]T[X1]; lactam 1-C): the tolerability entry in data set [1] (all treatment doses and durations) was “well tolerated with no adverse events observed”. For the same compound, the weight loss result in data set [1] (ovariectomised, estradiol-treated rats) is recorded as “did not seem to be exacerbated”. The MEC50 in data set [2] was determined as 0.015 µg/mL. Also, the MEC90 in data set [2] was determined as 0.015 µg/mL. In addition, the “biofilm formation in real time” value was “remained stunted and failed to grow into mature biofilms” in the data set on C. albicans biofilms (0.25 μg/ml added to 3 h formed biofilms); “only adhered cells with stunted growth, which failed to grow into mature biofilms” in the data set with C. albicans biofilms (0.25 μg/ml added to cells adhered 90 min). In addition, in the data set with Candida auris (2 doses (Day 1, Day 4), Day 8, compared to fluconazole, amphotericin B and vehicle groups), the “average reduction in kidney CFU” value was 3 log. For the same compound, the “percent survival at the end of the study” value in the data set with Candida auris (2 doses, Day 14) was 80%. For the same compound, the safety and tolerability entry in data set [3] was “safe and well tolerated”. For the same compound, the minimum inhibitory concentration (MIC) (commonly the lowest concentration found to suppress growth) against C. albicans (strain 98-17) was 0.06 µg/mL; against C. albicans (strain 98-210), 0.03 µg/mL; against C. albicans (strain 580), 0.06 µg/mL; with C. albicans (strain K-1), 0.06 µg/mL.
